Columns and labels:
[1] = system: green algae Chlamydomonas reinhardtii (CC-125); assay: Algal fluorescence inhibition (F25m) measured with the microfluidic OLED/OPD test apparatus; assay type: cell-based; conditions: 1×10^6 cell/ml algal culture
Experimental: According to an experimental evaluation using the test apparatus, green algae Chlamydomonas reinhardtii (CC-125) was cultivated in 250 mL Erlenmeyer flasks in High Salt Medium (HSM) with the adjusted pH=6.8±0.1. The algae were grown at 25° C. under a light intensity of 100 μmol·m-2·s-1 provided by white-light neon lamps and a 16 h-light/8 h-dark cycle. Cells were maintained continuously in the mid-exponential growth phase (up to 4×10^6 cell/ml) before experiments. To measure the minimum density of algae that can be detected, successive dilutions of a 3×10^6 cell/ml algal culture were prepared in HSM. These solutions were dark adapted for 15 min before fluorescence measurement in order to reoxidize photosystem II reaction centers.
According to the experimental evaluation using the test apparatus, pollutant detection measurements, a 1×10^6 cell/ml green algal culture was used. […] Algal exposure to ethanol concentration used in this study (without DCMU) had no effect on the fluorescence measurements (data not shown). […]
It was noticed that the injection of the pollutant changes fluorescence kinetics. An increase in the fluorescence signal for the first 100 ms, proportional to the pollutant concentration was observed. DCMU induced this fluorescence increase because it blocks the electron transfer in PSII. […]

[2] = system: green algae Chlamydomonas reinhardtii (CC-125); assay: Algal fluorescence inhibition (Vj) measured with the commercial Handy-PEA fluorometer; assay type: cell-based; conditions: Handy-PEA commercial system, 1×10^6 cell/ml algal culture, same experimental conditions, read-out: concentration of DCMU inhibiting 50% of the algae photochemistry (EC50), evaluated with Vj
Experimental: According to the experimental evaluation using the test apparatus, pollutant detection measurements, a 1×10^6 cell/ml green algal culture was used. Different concentrations of Diuron or DCMU (3(3,4-dichlorophenyl)-1,1-dimethylurea from Aldrich) were prepared in pure ethanol. For each measurement, 30 μL of DCMU was mixed with 2 mL of algal solution. The mixtures were exposed for 30 min under a 100 μmol·m-2·s-1 light intensity, and then dark adapted for 15 min before being injected into the microfluidic chip with a syringe pump to fully fill a microfluidic chamber (around 10 μL). Algal exposure to ethanol concentration used in this study (without DCMU) had no effect on the fluorescence measurements (data not shown). Each measurement was replicated three times. […]
According to the experimental evaluation using the test apparatus, Handy-PEA fluorometer (Hansatech Ltd.) was used as the commercial available equipment to be compared with the microfluidic sensor. […] Fluorescence emission was detected for wavelengths over 700 nm.
According to the experimental evaluation using the test apparatus, from this kinetic of the fluorescence signal, it is possible to extract several parameters representing physiological processes. […] The relative variable fluorescence at 2 ms Vj is very sensitive to Diuron as it is proportional to reaction centers closed at 2 ms. […]

Algae culture CC125 = assay: Oxygen concentration measurement with the nanofilament electrical detector in a microfluidic channel; assay type: cell-based, Chlamydomonas reinhardtii; conditions: 1 μM Diuron; CC125 5M cell/ml; -0.6V between working and reference electrode
Experimental: According to an experimental evaluation, in order to measure the oxygen level, the electrodes making up the electrical detector are integrated in a glass microfluidic channel, and aligned on an OLED. Algae culture CC125 (5M cell/ml concentration) is injected in the microfluidic channel, the oxygen measure being continuously taken through applying-0.6V between the working electrode and the reference electrode. A Diuron concentration of 1 uM is added to the algae culture before the injection into the chip and the measuring. Standard measures of 1 uM of pollutant were made in triplicate.
Oxygen variation of algae, which is the combination of both production and breathing of algae, can therefore be linked to the pollutant concentration contained in the analyte. In order to measure oxygen production, this detector is also composed of the same organic light source used by the fluorescence detector (OLED.
FIG. 22A refers to oxygen concentration levels measured with the electrical detector for 1 μM of Diuron and with a reference (that has not been exposed to Diuron).

Question: How did the “lowest concentration tested that gave a significant difference with the control algae for the Finh parameter” value ([1]; 30 min of light exposure) turn out when `CN(C)C(=O)Nc1ccc(Cl)c(Cl)c1` [Diuron, 3(3,4-dichlorophenyl)-1,1-dimethylurea] was run?
Answer: 7.5 nM

Question: What about the EC50 ([1]; Chlamydomonas reinhardtii, test apparatus, 30 min light exposure, 15 min dark adaptation, read-out: concentration of DCMU inhibiting 50% of the algae photochemistry (EC50), evaluated with F25m) of the same compound?
Answer: 11 nM

Question: What about the EC50 [2] of the same compound?
Answer: 220 nM

Question: What about the “decrease in total oxygen production from algae” value (Algae culture CC125) of the same compound?
Answer: about 26%

From patent US20150107993A1, “METHODS AND APPARATUSES FOR […] POLLUTION” (Transfert Plus, s.e.c., priority 2012, published 2015)
